According to ChEMBL document CHEMBL1201862, “PubChem BioAssay data set” (2004):
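Compound exposure: 48 hours, 5 concentrations, 96-well plates. GI50 is the concentration that inhibits growth by half.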 The source made the active and inactive calls. Rule as the data show it: active = GI50 up to about 1.1 µM and inactive = higher.

How the values were obtained:
Assay in all cases: DTP human tumour cell line panel, 48 h
[1] = test system: SR
[2] = test system: SK-MEL-5
[3] = test system: SNB-75
[4] = test system: U-251
[5] = test system: MDA-N
[6] = test system: RXF 393
[7] = test system: OVCAR-4
[8] = test system: NCI-H23
[9] = test system: KM12
[10] = test system: A549
[11] = test system: CAKI-1
[12] = test system: A498
[13] = test system: 786-0
[14] = test system: DU-145
[15] = test system: RPMI-8226
[16] = test system: TK-10
[17] = test system: HT-29
[18] = test system: SK-OV-3
[19] = test system: HCT-15
[20] = test system: UACC-62
[21] = test system: SF-539
[22] = test system: MDA-MB-231
[23] = test system: ACHN
[24] = test system: MCF7
[25] = test system: IGROV-1
[26] = test system: EKVX
[27] = test system: HL-60
[28] = test system: NCI/ADR-RES
[29] = test system: SNB-19
[30] = test system: OVCAR-3
[31] = test system: UACC-257
[32] = test system: MDA-MB-435
[33] = test system: MOLT-4
[34] = test system: NCI-H522
[35] = test system: NCI-H460
[36] = test system: Malme-3M
[37] = test system: K562
[38] = test system: HOP-92
[39] = test system: SK-MEL-2
[40] = test system: BT-549
[41] = test system: CCRF-CEM
[42] = test system: OVCAR-8
[43] = test system: PC-3
[44] = test system: HOP-62
[45] = test system: SN12C
[46] = test system: LOX IMVI
[47] = test system: SF-295
[48] = test system: NCI-H226
[49] = test system: SW-620
[50] = test system: M14
[51] = test system: T47D
[52] = test system: COLO 205
[53] = test system: HCT-116
[54] = test system: SK-MEL-28
[55] = test system: SF-268
[56] = test system: OVCAR-5
[57] = test system: Hs-578T
[58] = test system: UO-31
[59] = test system: HCC 2998

SMILES: c1cncc(CNCc2cccnc2)c1
- GI50 [1]: > 100 µM (inactive)
- GI50 [2]: > 100 µM (inactive)
- GI50 [3]: > 100 µM (inactive)
- GI50 [4]: > 100 µM (inactive)
- GI50 [5]: > 100 µM (inactive)
- GI50 [6]: > 100 µM (inactive)
- GI50 [7]: > 100 µM (inactive)
- GI50 [8]: > 100 µM (inactive)
- GI50 [9]: > 100 µM (inactive)
- GI50 [10]: > 100 µM (inactive)
- GI50 [11]: > 100 µM (inactive)
- GI50 [12]: > 100 µM (inactive)
- GI50 [13]: > 100 µM (inactive)
- GI50 [14]: > 100 µM (inactive)
- GI50 [15]: > 100 µM (inactive)
- GI50 [16]: > 100 µM (inactive)
- GI50 [17]: > 100 µM (inactive)
- GI50 [18]: > 100 µM (inactive)
- GI50 [19]: > 100 µM
- GI50 [20]: > 100 µM (inactive)
- GI50 [21]: > 100 µM (inactive)
- GI50 [22]: > 100 µM (inactive)
- GI50 [23]: > 100 µM (inactive)
- GI50 [24]: > 100 µM (inactive)
- GI50 [25]: > 100 µM (inactive)
- GI50 [26]: > 100 µM (inactive)
- GI50 [27]: 3.6 µM (inactive)
- GI50 [28]: > 100 µM (inactive)
- GI50 [29]: > 100 µM (inactive)
- GI50 [30]: > 100 µM (inactive)
- GI50 [31]: > 100 µM (inactive)
- GI50 [32]: > 100 µM (inactive)
- GI50 [33]: > 100 µM (inactive)
- GI50 [34]: > 100 µM (inactive)
- GI50 [35]: > 100 µM (inactive)
- GI50 [36]: > 100 µM (inactive)
- GI50 [37]: > 100 µM (inactive)
- GI50 [38]: > 100 µM (inactive)
- GI50 [39]: > 100 µM (inactive)
- GI50 [40]: > 100 µM (inactive)
- GI50 [41]: 49.2 µM (inactive)
- GI50 [42]: > 100 µM (inactive)
- GI50 [43]: > 100 µM (inactive)
- GI50 [44]: > 100 µM (inactive)
- GI50 [45]: > 100 µM (inactive)
- GI50 [46]: > 100 µM (inactive)
- GI50 [47]: > 100 µM (inactive)
- GI50 [48]: > 100 µM (inactive)
- GI50 [49]: > 100 µM (inactive)
- GI50 [50]: > 100 µM (inactive)
- GI50 [51]: > 100 µM (inactive)
- GI50 [52]: > 100 µM (inactive)
- GI50 [53]: > 100 µM (inactive)
- GI50 [54]: > 100 µM (inactive)
- GI50 [55]: > 100 µM (inactive)
- GI50 [56]: > 100 µM (inactive)
- GI50 [57]: > 100 µM (inactive)
- GI50 [58]: > 100 µM (inactive)

SMILES: COC(=O)C(Cc1ccccc1)NP(=O)(O)OCC1OC(n2cc(Br)c(=O)[nH]c2=O)CC1O (configuration not stated)
- GI50 [1]: > 100 µM (inactive)
- GI50 [2]: > 100 µM (inactive)
- GI50 [3]: > 100 µM (inactive)
- GI50 [4]: > 100 µM (inactive)
- GI50 [5]: > 100 µM (inactive)
- GI50 [6]: > 100 µM (inactive)
- GI50 [7]: > 100 µM (inactive)
- GI50 [59]: > 100 µM (inactive)
- GI50 [8]: > 100 µM (inactive)
- GI50 [9]: > 100 µM (inactive)
- GI50 [10]: > 100 µM (inactive)
- GI50 [12]: > 100 µM (inactive)
- GI50 [13]: > 100 µM (inactive)
- GI50 [14]: > 100 µM (inactive)
- GI50 [16]: > 100 µM (inactive)
- GI50 [17]: > 100 µM (inactive)
- GI50 [18]: > 100 µM (inactive)
- GI50 [19]: > 100 µM
- GI50 [20]: > 100 µM (inactive)
- GI50 [21]: > 100 µM (inactive)
- GI50 [22]: > 100 µM (inactive)
- GI50 [23]: > 100 µM (inactive)
- GI50 [24]: > 100 µM (inactive)
- GI50 [25]: > 100 µM (inactive)
- GI50 [26]: > 100 µM (inactive)
- GI50 [27]: > 100 µM (inactive)
- GI50 [28]: > 100 µM (inactive)
- GI50 [29]: > 100 µM (inactive)
- GI50 [30]: > 100 µM (inactive)
- GI50 [31]: > 100 µM (inactive)
- GI50 [32]: > 100 µM (inactive)
- GI50 [33]: > 100 µM (inactive)
- GI50 [34]: > 100 µM (inactive)
- GI50 [35]: > 100 µM (inactive)
- GI50 [36]: > 100 µM (inactive)
- GI50 [37]: > 100 µM (inactive)
- GI50 [38]: > 100 µM (inactive)
- GI50 [39]: > 100 µM (inactive)
- GI50 [40]: > 100 µM (inactive)
- GI50 [41]: > 100 µM (inactive)
- GI50 [42]: > 100 µM (inactive)
- GI50 [43]: > 100 µM (inactive)
- GI50 [44]: > 100 µM (inactive)
- GI50 [45]: > 100 µM (inactive)
- GI50 [46]: > 100 µM (inactive)
- GI50 [47]: > 100 µM (inactive)
- GI50 [48]: > 100 µM (inactive)
- GI50 [49]: > 100 µM (inactive)
- GI50 [50]: > 100 µM (inactive)
- GI50 [51]: > 100 µM (inactive)
- GI50 [52]: > 100 µM (inactive)
- GI50 [53]: > 100 µM (inactive)
- GI50 [54]: > 100 µM (inactive)
- GI50 [55]: > 100 µM (inactive)
- GI50 [56]: > 100 µM (inactive)
- GI50 [57]: > 100 µM (inactive)
- GI50 [58]: > 100 µM (inactive)

SMILES: NCCC(N)C(=O)O (configuration not stated)
- GI50 [1]: > 100 µM (inactive)
- GI50 [2]: > 100 µM (inactive)
- GI50 [4]: > 100 µM (inactive)
- GI50 [5]: > 100 µM (inactive)
- GI50 [6]: > 100 µM (inactive)
- GI50 [7]: > 100 µM (inactive)
- GI50 [8]: > 100 µM (inactive)
- GI50 [9]: > 100 µM (inactive)
- GI50 [10]: > 100 µM (inactive)
- GI50 [11]: > 100 µM (inactive)
- GI50 [12]: > 100 µM (inactive)
- GI50 [13]: > 100 µM (inactive)
- GI50 [14]: > 100 µM (inactive)
- GI50 [15]: > 100 µM (inactive)
- GI50 [16]: > 100 µM (inactive)
- GI50 [17]: > 100 µM (inactive)
- GI50 [18]: > 100 µM (inactive)
- GI50 [19]: > 100 µM
- GI50 [20]: > 100 µM (inactive)
- GI50 [21]: > 100 µM (inactive)
- GI50 [22]: > 100 µM (inactive)
- GI50 [23]: > 100 µM (inactive)
- GI50 [24]: > 100 µM (inactive)
- GI50 [25]: > 100 µM (inactive)
- GI50 [26]: > 100 µM (inactive)
- GI50 [27]: > 100 µM (inactive)
- GI50 [28]: > 100 µM (inactive)
- GI50 [29]: > 100 µM (inactive)
- GI50 [30]: > 100 µM (inactive)
- GI50 [31]: > 100 µM (inactive)
- GI50 [32]: > 100 µM (inactive)
- GI50 [33]: > 100 µM (inactive)
- GI50 [34]: > 100 µM (inactive)
- GI50 [35]: > 100 µM (inactive)
- GI50 [36]: > 100 µM (inactive)
- GI50 [37]: > 100 µM (inactive)
- GI50 [38]: > 100 µM (inactive)
- GI50 [39]: > 100 µM (inactive)
- GI50 [40]: > 100 µM (inactive)
- GI50 [41]: > 100 µM (inactive)
- GI50 [42]: > 100 µM (inactive)
- GI50 [43]: > 100 µM (inactive)
- GI50 [44]: > 100 µM (inactive)
- GI50 [45]: > 100 µM (inactive)
- GI50 [46]: > 100 µM (inactive)
- GI50 [47]: > 100 µM (inactive)
- GI50 [48]: > 100 µM (inactive)
- GI50 [49]: > 100 µM (inactive)
- GI50 [50]: > 100 µM (inactive)
- GI50 [51]: > 100 µM (inactive)
- GI50 [52]: > 100 µM (inactive)
- GI50 [53]: > 100 µM (inactive)
- GI50 [54]: > 100 µM (inactive)
- GI50 [55]: > 100 µM (inactive)
- GI50 [56]: > 100 µM (inactive)
- GI50 [57]: > 100 µM (inactive)
- GI50 [58]: > 100 µM (inactive)
